# Laboratory results: patent US20260240865A1, “HARNESSING IKZF:BETA-CATENIN COMPLEXES IN THE TREATMENT OF LYMPHOCYTE ASSOCIATED DISEASES OR CONDITIONS” (Yale University, priority 2022, published 2026)
# T1: Stat5, mouse (mouse, UniProt Q9JIA0 1-793)
# T1 sequence: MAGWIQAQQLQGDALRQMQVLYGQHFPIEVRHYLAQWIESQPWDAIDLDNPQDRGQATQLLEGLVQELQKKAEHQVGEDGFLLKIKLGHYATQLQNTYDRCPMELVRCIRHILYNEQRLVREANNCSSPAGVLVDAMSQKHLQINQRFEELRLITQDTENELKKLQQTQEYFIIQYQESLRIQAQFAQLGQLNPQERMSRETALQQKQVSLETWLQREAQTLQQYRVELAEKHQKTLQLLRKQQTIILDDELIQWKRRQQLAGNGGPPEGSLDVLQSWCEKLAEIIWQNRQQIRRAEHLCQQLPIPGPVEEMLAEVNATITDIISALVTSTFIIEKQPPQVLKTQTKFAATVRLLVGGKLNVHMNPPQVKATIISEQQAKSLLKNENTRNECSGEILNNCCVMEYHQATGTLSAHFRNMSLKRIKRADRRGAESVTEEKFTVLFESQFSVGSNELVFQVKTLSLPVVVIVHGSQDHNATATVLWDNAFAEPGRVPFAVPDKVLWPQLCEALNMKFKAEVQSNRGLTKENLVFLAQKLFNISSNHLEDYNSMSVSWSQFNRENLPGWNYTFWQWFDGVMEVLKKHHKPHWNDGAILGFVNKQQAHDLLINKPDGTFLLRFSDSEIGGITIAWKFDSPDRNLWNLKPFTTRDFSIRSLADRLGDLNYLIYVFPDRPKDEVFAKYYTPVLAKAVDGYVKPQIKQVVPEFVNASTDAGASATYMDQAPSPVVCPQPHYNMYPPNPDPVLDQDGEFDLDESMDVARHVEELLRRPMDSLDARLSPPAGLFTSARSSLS
# Key:
# [1] = system: B-lymphoid leukemia and lymphoma cells; experiment: Cell viability assay (Cell Titer Glo 2.0) with GSK3β inhibitors; assay type: cell-based, human; settings: B-lymphoid vs myeloid and epithelial cells (PDX2, BV173, LAX2 vs THP1, SW620, H82); 3 days
# Procedure: Forty thousand patient-derived pre-B ALL cells or twenty thousand leukemia/lymphoma cell lines or ten thousand colon/lung cancer cells were seed in a volume of 80 μl in complete growth medium on 96-well plate. GSK3β3 inhibitors were added at the indicated concentration in a total volume of 100 μl. After treatment for 3 days, Cell Titer Glo 2.0 assays (Promega) were performed according to the manufacturer's instructions. Relative viability was calculated by measuring the luminescence value and normalizing it to baseline values of untreated cells.
# Data are shown as mean±s.d. unless stated. Statistical analysis was performed by GraphPad Prism 7 (GraphPad Software Inc.) using unpaired two-tailed t test or log-rank test as indicated in figure legends. Significance was considered at P<0.05. Kaplan-Meier survival analysis was used to estimate OS with GraphPad Prism 7. The investigators were not blinded to allocation during experiments and outcome assessment. Experiments were repeated to ensure reproducibility of the observations.
# [2] = system: β-catenin and MYC protein levels in B-ALL cells; experiment: Western blot of β-catenin and MYC after GSK3β inhibitor treatment; assay type: cell-based, human; settings: for β-catenin accumulation and MYC suppression: B-ALL (PDX2) cells, 16 hours, FIGS. 7A, 7C, 18C
# Procedure: Cells were washed twice with ice-cold PBS and were lysed in CelLytic buffer (Sigma-Aldrich) supplemented with 1% protease inhibitor cocktail (Roche Diagnostics), 1% phosphatase inhibitor cocktail (EMD Millipore) and 1 mM PMSF (CST) on ice. 10-20 μg of cell lysates were separated on precast gels (Bio-Rad) and transferred on nitrocellulose membranes (Bio-Rad). After blocking for an hour in TBS-T with 2% BSA, membranes were probed with the appropriate primary antibodies listed in Table 6. Membranes were incubated with alkaline-phosphatase conjugated secondary antibodies (Invitrogen) and analyzed with Chemi Doc™ MP Imaging System (Bio-Rad). For fractionation experiment Nuclear and Cytoplasmic Extraction Reagent (Thermo Scientific) was used according to manufacturer's instructions.
# [3] = cited from earlier work; for Outcome: clinical responses / Outcome: safety: Phase 1 and 2; for safety and tolerability / PK/PD profile in clinical trials: micromolar plasma concentrations (Cmax); for Outcome: MTD: i.v.
# [4] = system: B-cell lymphoma cell lines; experiment: Drug responses (AUC) to CHIR99021 across B-cell lymphoma cell lines; assay type: cell-based, human; settings: 84 B-cell lymphoma cell lines; 8q24+ n=31, 8q24- n=53; P=5.2E-07
# Text: In some embodiments, the IC50 can be calculated by using the Broad Repurposing Library and the PRISM multiplexed cell-line viability assay. Any assay or technique known in the art can be used for the calculation of the IC50 for the purposed of the present invention. The mutation data for CTNNB1, APC, AXIN1, AXIN2 and GSK3β genes were acquired from https://cancer.sanger.ac.uk/cosmic. The data for RIC staining of β-catenin was obtained from https://www.proteinatlas.org/. The RNA-seq data and mass spectrometry data for β-catenin and IKZF1 in human cancer cell lines were obtained from depmap.org/portal/download/. Data for drug-response of solid tumor cell lines to were acquired from depmap.org/portal/download/. Hallmark Myc-Targets V1 and Hallmark Myc-Targets V2 gene sets were acquired from MSigDB. RNA-seq data was deposited to GEO with the accession number GSE196767 and ChIP-seq data was deposited to GEO with accession number GSE196745. All other data are available from the corresponding author upon reasonable request.
# [5] = system: Human B-ALL xenograft cells (SFO5); experiment: Colony formation assay of B-ALL xenograft cells; assay type: cell-based; settings: SFO5, lenalidomide 0.5 μM for 2 days
# Procedure: For colony forming assays, 10,000 mouse BCR-ABL1 or NRAS^G12D were grown on MethoCult medium (M3231 or M3630 (with IL-7) respectively, StemCell Technologies) in 3-cm diameter dishes with an extra dish filled with water to prevent evaporation. Colony forming assays with human leukemia/lymphoma cell lines were performed by plating 10,000 cells on MethoCult medium without human cytokines (H4230). For mouse pre-B cells 50.000 cells were grown on MethoCult medium with IL-7 (M3630). For colony forming assays assessing mouse myeloid progenitors, 10,000 cells were grown on MethoCult medium with mouse SCF, IL-3, IL-6, EPO (M3434). For human cord-blood derived colonies, 1000 CD34^+ HSCs were plated on MethoCult medium with recombinant human SCF, IL-3, IL-6, EPO, G-CSF, GM-CSF (H4435). For all colony forming experiments, colonies were imaged and counted using GelCount (Oxford Optronix) and 7-14 days after plating.
# Stat5, mouse = molecular target: T1, Stat5, mouse; experiment: co-IP with anti-β-catenin antibody and Western blot, murine B-ALL cells (FIG. 4B)
# Procedure: Co-immunoprecipitation experiments were performed using Pierce Crosslink Magnetic IP/Co-IP kit according to manufacturer's instructions (Thermo Scientific).
Molecule,selective cell death / drug response [1],β-catenin accumulation and MYC suppression [2],Outcome: clinical responses [3],safety and tolerability / PK/PD profile in clinical trials [3],other results
O=C1Nc2cc(Br)ccc2/C1=C1/Nc2ccccc2/C1=N\O [6-Bromoindirubin-3′-oxime],induced cell death at low nanomolar concentrations selectively in B-lymphoid but not myeloid and epithelial cells,induced massive accumulation of β-catenin in parallel with acute suppression of MYC,–,–,–
"Cn1cc(C2=C(c3coc4ccc(F)cc34)C(=O)NC2=O)c2cc3c(cc21)OCO3 [9-ING-41, Elraglusib]",broad non-specific toxicity across all cell types tested,failure to induce β-catenin accumulation and MYC-suppression,No clinical response,demonstrated safety and tolerability at micromolar plasma concentrations,"Outcome: safety [3]: Phase 1 and 2, favorable safety"
N#Cc1ccc2[nH]c(O)c(-c3ccc(CN4CCOCC4)cn3)c2c1 [AZD1080],–,–,–,demonstrated safety and tolerability at micromolar plasma concentrations,–
"Cc1c[nH]c(-c2cnc(NCCNc3ccc(C#N)cn3)nc2-c2ccc(Cl)cc2Cl)n1 [CHIR99021, Laduviglusib]",–,induced massive accumulation of β-catenin in parallel with acute suppression of MYC,No clinical responses,demonstrated safety and tolerability at micromolar plasma concentrations,sensitivity of B-cell lymphoma cell lines with MYC-rearrangement (8q24+) vs without [4]: substantially less sensitive; Outcome: MTD [3]: 80 mg
O=c1sn(-c2cccc3ccccc23)c(=O)n1Cc1ccccc1 [Tideglusib],no significant activity in any cell type,failure to induce β-catenin accumulation and MYC-suppression,No clinical responses,demonstrated safety and tolerability at micromolar plasma concentrations,"Outcome: safety [3]: Phase 1 and 2, favorable safety; Outcome: MTD [3]: 120 mg"
Nc1cccc2c1CN(C1CCC(=O)NC1=O)C2=O (stereo not drawn) [lenalidomide],–,–,–,–,"MYC expression under β-catenin accumulation ([2]; SFO5 cells, lenalidomide 0.5 μM with LY2090314 20 nM): relieved β-catenin-induced transcriptional repression of MYC; colony formation under β-catenin accumulation [5]: relieved β-catenin-induced transcriptional repression of MYC and suppression of colony formation"
CHIR98014,induced cell death at low nanomolar concentrations selectively in B-lymphoid but not myeloid and epithelial cells,induced massive accumulation of β-catenin in parallel with acute suppression of MYC,–,–,–
"β-catenin (Ctnnb1), mouse (other, UniProt Q02248 2-781, looked up, Protein from lysates of BCR-ABL1-transformed Ctnnb1^ex3fl/+ murine B-ALL cells, immunoprecipitated with antibody 14/β-catenin; After Cre-ER^T2/4-OHT one allele lacks exon 3 (GSK3β phosphorylation sites), so the stabilised exon-3-deleted form and the wild type are both present) ATQADLMELDMAMEPDRKAAVSHWQQQSYLDSGIHSGATTTAPSLSGKGNPEEEDVDTSQVLYEWEQGFSQSFTQEQVADIDGQYAMTRAQRVRAAMFPETLDEGMQIPSTQFDAAHPTNVQRLAEPSQMLKHAVVNLINYQDDAELATRAIPELTKLLNDEDQVVVNKAAVMVHQLSKKEASRHAIMRSPQMVSAIVRTMQNTNDVETARCTAGTLHNLSHHREGLLAIFKSGGIPALVKMLGSPVDSVLFYAITTLHNLLLHQEGAKMAVRLAGGLQKMVALLNKTNVKFLAITTDCLQILAYGNQESKLIILASGGPQALVNIMRTYTYEKLLWTTSRVLKVLSVCSSNKPAIVEAGGMQALGLHLTDPSQRLVQNCLWTLRNLSDAATKQEGMEGLLGTLVQLLGSDDINVVTCAAGILSNLTCNNYKNKMMVCQVGGIEALVRTVLRAGDREDITEPAICALRHLTSRHQEAEMAQNAVRLHYGLPVVVKLLHPPSHWPLIKATVGLIRNLALCPANHAPLREQGAIPRLVQLLVRAHQDTQRRTSMGGTQQQFVEGVRMEEIVEGCTGALHILARDVHNRIVIRGLNTIPLFVQLLYSPIENIQRVAAGVLCELAQDKEAAEAIEAEGATAPLTELLHSRNEGVATYAAAVLFRMSEDKPQDYKKRLSVELTSSLFRTEPMAWNETADLGLDIGAQGEALGYRQDDPSYRSFHSGGYGQDALGMDPMMEHEMGGHHPGADYPVDGLPDLGHAQDLMDGLPPGDSNQLAWFDTDL",–,–,–,–,"binding result (Stat5, mouse): no binding"
